From publication PMC10889769, “The Molecular and Functional Characterization of Sensory Neuron Membrane Protein 1b (SNMP1b) from Cyrtotrachelus buqueti (Coleoptera: Curculionidae)” (Insects, 2024)

molecular target: T1, CbuqSNMP1b (Cyrtotrachelus buqueti, UniProt A0A9E9JN76); assay: Fluorescence competition binding assay with 1-NPN as fluorescent probe; details: not given
Procedure: 1-NPN and all of the other chemicals (the purity being at least more than 96%) used in the binding assays were purchased from Aladdin Biochemical Technology Co., Ltd. (Shanghai, China). The Lumina fluorescence spectrophotometer (Thermo Fisher Scientific, Waltham, MA, USA) was used to perform fluorescence binding assays with a 1 cm light path quartz cuvette at room temperature. All the slit widths for both excitation and emission were 10 nm. The 1-NPN and all the other chemicals were dissolved in methanol (HPLC-grade) to a final concentration of 1 mM. The binding constant of 1-NPN was determined by titrating a 2 μM solution of the CbuqSNMP1b protein with aliquots of 2–40 μM 1-NPN concentrations. The binding of 1-NPN was measured at an excitation wavelength of 337 nm. The scanning range was 360–560 nm at each concentration and the maximum fluorescence intensities were plotted against the free ligand concentration.

T1 sequence (A0A9E9JN76 entry or part of it): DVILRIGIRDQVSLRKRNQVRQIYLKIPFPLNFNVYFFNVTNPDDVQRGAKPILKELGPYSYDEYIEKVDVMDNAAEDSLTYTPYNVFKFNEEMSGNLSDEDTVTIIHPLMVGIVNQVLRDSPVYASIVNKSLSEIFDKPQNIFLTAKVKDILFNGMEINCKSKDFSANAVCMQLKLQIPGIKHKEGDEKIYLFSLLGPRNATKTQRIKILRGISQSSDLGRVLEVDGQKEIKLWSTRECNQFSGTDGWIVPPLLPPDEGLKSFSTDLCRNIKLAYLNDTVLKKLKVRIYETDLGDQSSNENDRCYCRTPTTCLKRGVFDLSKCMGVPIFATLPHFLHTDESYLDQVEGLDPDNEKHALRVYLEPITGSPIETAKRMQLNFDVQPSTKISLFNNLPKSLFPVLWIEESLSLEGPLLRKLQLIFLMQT

Q: For `C=C(C)[C@H]1CC=C(C)CC1` [(+)-Limonene], which IC50 is on record?
A: The IC50 was over 50 µM.

Q: `CCCCOC(=O)c1ccccc1C(=O)OCCCC` [Dibutyl phthalate] was tested. Which IC50 did it give?
A: Its IC50 is 10.4 µM.

Q: How did the IC50 turn out when `C[C@@H]1CC[C@H]2C(C)(C)[C@H]3C[C@@]12CC[C@@]3(C)O` [Cedrol] was run?
A: The IC50 was over 50 µM.

Q: With `Cc1cccc(C)c1` [M-xylene] as the molecule, how does the IC50 read?
A: The IC50 was over 50 µM.

Q: With `CC(C)=CCC/C(C)=C/CC/C(C)=C/CC/C=C(\C)CC/C=C(\C)CCC=C(C)C` [Squalene] as the molecule, how does the IC50 read?
A: Its IC50 is over 50 µM.

Q: For `c1ccc2scnc2c1` [Benzothiazole], which IC50 is on record?
A: The IC50 was 13.3 µM.

Q: Which IC50 does the source give for `C=Cc1ccccc1` [Styrene] here?
A: Its IC50 is over 50 µM.

Q: Which IC50 does the source give for `Oc1ccccc1` [Phenol] here?
A: Its IC50 is 24.1 µM.

same assay, conditions: recombinant CbuqSNMP1b and 1-NPN both at 2 μM; displacement of 1-NPN; room temperature; read-out: IC50

Q: How did the IC50 turn out when `CCCCCCCCCC=O` [Decyl aldehyde] was run?
A: Its IC50 is over 50 µM.

Q: With `CCCCCC(=O)OCC` [Ethyl hexanoate] as the molecule, how does the IC50 read?
A: The IC50 was over 50 µM.

Q: `CCCC/C=C/C=C/C=O` [trans,trans-2,4-Nonadienal] was tested. Which IC50 did it give?
A: Its IC50 is over 50 µM.

Q: How did the IC50 turn out when `CCCCCCCCCCCCCCCC(=O)OC` [Methyl hexadecanoate] was run?
A: Its IC50 is over 50 µM.

Q: How did the IC50 turn out when `CCCCCCCCC=O` [1-Nonanal] was run?
A: Its IC50 is over 50 µM.

Q: With `CCCCCCCC(C)=O` [2-Nonanone] as the molecule, how does the IC50 read?
A: Its IC50 is over 50 µM.

molecular target: T1, CbuqSNMP1b; assay: Binding of 1-NPN to CbuqSNMP1b (fluorescence titration, Scatchard analysis); details: 2 μM CbuqSNMP1b titrated with 2–40 μM 1-NPN; Scatchard plot; read-out: dissociation constant (Kd) of the CbuqSNMP1b/1-NPN complex
Procedure: Binding affinities of CbuqSNMP1b to 14 volatiles (Table 1) emitted by female adults of C. buqueti were measured with the fluorescence competition binding assays using N-phenyl-1-naphthylamine (1-NPN) as the fluorescent probe. 1-NPN and all of the other chemicals (the purity being at least more than 96%) used in the binding assays were purchased from Aladdin Biochemical Technology Co., Ltd. (Shanghai, China). The Lumina fluorescence spectrophotometer (Thermo Fisher Scientific, Waltham, MA, USA) was used to perform fluorescence binding assays with a 1 cm light path quartz cuvette at room temperature. All the slit widths for both excitation and emission were 10 nm. The 1-NPN and all the other chemicals were dissolved in methanol (HPLC-grade) to a final concentration of 1 mM. The binding constant of 1-NPN was determined by titrating a 2 μM solution of the CbuqSNMP1b protein with aliquots of 2–40 μM 1-NPN concentrations. The binding of 1-NPN was measured at an excitation wavelength of 337 nm. The scanning range was 360–560 nm at each concentration and the maximum fluorescence intensities were plotted against the free ligand concentration. […]

Q: With `c1ccc(Nc2cccc3ccccc23)cc1` [1-NPN, N-phenyl-1-naphthylamine] as the molecule, how does the Kd read?
A: The Kd was 13.3 µM.
